Reference: publication PMC10589286, “Insights into the missing apiosylation step in flavonoid apiosides biosynthesis of Leguminosae plants” (Nature Communications, 2023)

Columns and labels:
[1] = biological target: T1, SsApiGT (Spatholobus suberectus, UniProt A0AA51YHU4); assay: enzyme catalysis, LC/MS; format: biochemical; settings: sugar donor supplied by UAXS system; acceptor only in figure
T1 construct: full length, synthesized gene, pET-28a(+), E. coli BL21(DE3), nickel-purified
T1 sequence (A0AA51YHU4 1-448): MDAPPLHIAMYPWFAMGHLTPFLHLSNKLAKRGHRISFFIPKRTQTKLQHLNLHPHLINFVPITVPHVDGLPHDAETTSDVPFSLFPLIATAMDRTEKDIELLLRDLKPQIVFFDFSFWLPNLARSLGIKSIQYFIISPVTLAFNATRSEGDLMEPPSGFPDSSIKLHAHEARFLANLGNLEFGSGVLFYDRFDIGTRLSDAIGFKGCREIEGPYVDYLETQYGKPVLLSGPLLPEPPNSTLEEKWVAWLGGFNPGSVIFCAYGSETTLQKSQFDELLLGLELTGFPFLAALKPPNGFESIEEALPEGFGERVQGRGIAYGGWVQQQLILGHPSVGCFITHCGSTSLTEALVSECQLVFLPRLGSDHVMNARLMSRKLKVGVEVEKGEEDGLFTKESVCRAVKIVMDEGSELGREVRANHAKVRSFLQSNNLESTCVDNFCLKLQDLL

[2] = biological target: T2, GgApiGT (Glycyrrhiza glabra, UniProt A0AA51YKR8); assay: enzyme catalysis, LC/MS; format: biochemical; settings: sugar donor supplied by UAXS system; acceptor only in figure
T2 construct: full length, pET-28a(+), E. coli BL21(DE3), nickel-purified
T2 sequence (A0AA51YKR8 1-454): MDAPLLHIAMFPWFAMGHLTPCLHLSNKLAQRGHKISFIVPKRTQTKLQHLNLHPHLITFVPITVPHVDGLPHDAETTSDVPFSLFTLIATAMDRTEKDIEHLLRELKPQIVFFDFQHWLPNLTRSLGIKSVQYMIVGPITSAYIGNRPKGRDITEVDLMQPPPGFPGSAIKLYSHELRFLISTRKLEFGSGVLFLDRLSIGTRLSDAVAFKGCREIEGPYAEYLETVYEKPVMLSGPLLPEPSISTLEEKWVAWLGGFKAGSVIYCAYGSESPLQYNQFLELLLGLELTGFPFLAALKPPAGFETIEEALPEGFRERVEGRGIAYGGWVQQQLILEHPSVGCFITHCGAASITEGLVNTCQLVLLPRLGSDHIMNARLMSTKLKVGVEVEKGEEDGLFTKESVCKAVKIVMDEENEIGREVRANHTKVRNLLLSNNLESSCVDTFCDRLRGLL

[3] = biological target: T3, PtApiGT (Pueraria montana, UniProt A0AA51YHU3); assay: enzyme catalysis, LC/MS; format: biochemical; settings: sugar donor supplied by UAXS system; acceptor only in figure
T3 construct: full length, pET-28a(+), E. coli BL21(DE3), nickel-purified
T3 sequence (A0AA51YHU3 1-457): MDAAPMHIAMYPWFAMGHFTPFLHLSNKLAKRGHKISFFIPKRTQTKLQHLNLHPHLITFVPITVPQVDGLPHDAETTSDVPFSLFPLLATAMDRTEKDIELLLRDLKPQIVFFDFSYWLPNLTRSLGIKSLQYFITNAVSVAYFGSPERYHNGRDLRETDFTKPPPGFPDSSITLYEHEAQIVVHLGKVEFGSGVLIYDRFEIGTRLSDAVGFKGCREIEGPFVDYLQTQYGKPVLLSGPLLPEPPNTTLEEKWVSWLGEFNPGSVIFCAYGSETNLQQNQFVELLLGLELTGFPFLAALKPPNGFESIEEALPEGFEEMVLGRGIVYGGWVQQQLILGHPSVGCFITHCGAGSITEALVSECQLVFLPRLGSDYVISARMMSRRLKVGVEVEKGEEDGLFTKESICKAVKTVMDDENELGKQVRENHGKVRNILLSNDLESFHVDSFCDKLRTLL

[4] = biological target: T4, GiApiGT (Glycyrrhiza inflata, UniProt A0AA51YKD5); assay: enzyme catalysis, LC/MS; format: biochemical; settings: sugar donor supplied by UAXS system; acceptor only in figure
T4 construct: full length, pET-28a(+), E. coli BL21(DE3), nickel-purified
T4 sequence (A0AA51YKD5 1-454): T2 sequence (A0AA51YKR8 1-454)

[5] = biological target: T5, GuApiGT (Glycyrrhiza uralensis, UniProt A0AA51Z2W4, DEL371-371/H373Q); assay: HPLC/MS conversion; format: biochemical; settings: 0.5 mM UDP-Xyl, acceptor isoliquiritin (2) 0.1 mM, pH 8.0, 37 °C, 3 h; printed S371/H373Q (S371 deleted)
T5 construct: full length, 454 aa (ORF 1365 bp), pET-28a(+) His-tagged, E. coli BL21(DE3), nickel-purified

[6] = substrate: O=C(/C=C/c1ccc(O[C@@H]2O[C@H](CO)[C@@H](O)[C@H](O)[C@H]2O)cc1)c1ccc(O)cc1O; assay: HPLC, Michaelis-Menten fit; format: biochemical, Glycyrrhiza uralensis; settings: 480 µmol/L saturated UDP-apiose, pH 8.0 phosphate, 37 °C, 15 min

T5 sequence (A0AA51Z2W4 entry or part of it DEL371-371/H373Q): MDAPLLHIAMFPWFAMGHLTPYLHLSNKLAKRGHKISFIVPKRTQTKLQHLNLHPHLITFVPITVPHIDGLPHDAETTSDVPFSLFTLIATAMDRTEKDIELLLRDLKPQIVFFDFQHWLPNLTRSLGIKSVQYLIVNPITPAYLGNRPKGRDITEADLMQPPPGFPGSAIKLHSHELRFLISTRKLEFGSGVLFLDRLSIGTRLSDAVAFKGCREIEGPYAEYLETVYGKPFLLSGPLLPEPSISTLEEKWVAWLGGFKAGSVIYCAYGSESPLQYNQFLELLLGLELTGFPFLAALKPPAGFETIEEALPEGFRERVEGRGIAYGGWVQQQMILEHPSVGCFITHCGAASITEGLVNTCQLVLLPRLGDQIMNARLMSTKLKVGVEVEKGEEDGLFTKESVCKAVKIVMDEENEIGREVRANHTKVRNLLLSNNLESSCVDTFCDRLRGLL

Molecule: O=c1ccn([C@@H]2O[C@H](COP(=O)(O)OP(=O)(O)O[C@H]3OC[C@](O)(CO)[C@H]3O)[C@@H](O)[C@H]2O)c(=O)[nH]1 [UDP-Api]
- enzyme catalysis, LC/MS [1]: identified them as apiosyltransferases by enzyme catalysis reactions
- enzyme catalysis, LC/MS [2]: identified them as apiosyltransferases by enzyme catalysis reactions
- enzyme catalysis, LC/MS [3]: identified them as apiosyltransferases by enzyme catalysis reactions
- enzyme catalysis, LC/MS [4]: identified them as apiosyltransferases by enzyme catalysis reactions

Molecule: O=c1ccn([C@@H]2O[C@H](COP(=O)(O)OP(=O)(O)O[C@H]3OC[C@@H](O)[C@H](O)[C@H]3O)[C@@H](O)[C@H]2O)c(=O)[nH]1 [UDP-Xyl]
- HPLC/MS conversion [5]: the S371/H373Q mutant could accept UDP-Xyl as sugar donor

B1: GuApiGT (Glycyrrhiza uralensis) (protein)
chain: MDAPLLHIAMFPWFAMGHLTPYLHLSNKLAKRGHKISFIVPKRTQTKLQHLNLHPHLITFVPITVPHIDGLPHDAETTSDVPFSLFTLIATAMDRTEKDIELLLRDLKPQIVFFDFQHWLPNLTRSLGIKSVQYLIVNPITPAYLGNRPKGRDITEADLMQPPPGFPGSAIKLHSHELRFLISTRKLEFGSGVLFLDRLSIGTRLSDAVAFKGCREIEGPYAEYLETVYGKPFLLSGPLLPEPSISTLEEKWVAWLGGFKAGSVIYCAYGSESPLQYNQFLELLLGLELTGFPFLAALKPPAGFETIEEALPEGFRERVEGRGIAYGGWVQQQMILEHPSVGCFITHCGAASITEGLVNTCQLVLLPRLGSDHIMNARLMSTKLKVGVEVEKGEEDGLFTKESVCKAVKIVMDEENEIGREVRANHTKVRNLLLSNNLESSCVDTFCDRLRGLL
notes: full length, 454 aa (ORF 1365 bp), pET-28a(+) His-tagged, E. coli BL21(DE3), nickel-purified
- Km [6]: 2.59 ± 0.23 µM
- kcat [6]: 0.11 s⁻¹
